{"source": "patent US20130143965A1", "about": "“MICROBI[…] AND STABLE SOLUTIONS OF GAMMA-HYDRO[…] FOR THE TREATMENT OF NARCOLEPSY” (Jazz Pharmaceuticals, Inc., priority 1998, published 2013)", "key": {"[1]": {"assay": "Pharmacokinetics of GHB after two consecutive 3 g oral doses in narcoleptic patients", "assay_type": "in vivo, human", "settings": "for Cmax: po, read-out: maximum GHB concentration (Cmax), mean ±SD", "procedure": "The objective of this study was to assess the pharmacokinetics of GHB after oral administration of two consecutive single doses of GHB (3 g/dose; patients generally ingested the first dose of this medication prior to bedtime and the second dose from 2.5 to 4.0 h later) to narcoleptic patients who are maintained on a chronic regimen of GHB.\nThis pharmacokinetic study was conducted as an open-label, single-center investigation in 6 narcoleptic patients. The study design is summarized as follows:\nBefore oral administration of the first GHB dose, an indwelling catheter was placed in an arm vein and a baseline blood sample was collected. Each patient then ingested a 3 g dose of GHB before bedtime. Another 3 g GHB dose was administered 4 h after the first dose. Twenty-one sequential blood samples were collected over 12 h (starting at 10 min after the first dose and ending at 8 h after the second dose). Upon completion of the treatment phase, a follow-up physical examination which included the measurement of vital signs was performed on each patient within 48 h after the last blood sample. A detailed description of the trial methodology is presented in Section IV.\nAll patients were hospitalized from approximately four hours prior to first GHB dosing (around 6 p.m.) until the end of the treatment period (around 10 a.m. the next morning). Patients ate their dinner at the clinical research unit soon after arrival and fasted until breakfast next morning. At least three hours elapsed between the completion of dinner and the administration of the first GHB dose. An indwelling catheter was placed in an arm vein of each patient for blood sampling at approximately 30 min and 1 h before the first GHB dose and a baseline blood sample (5 mL) was collected.\nThe first GHB dose (3 g) was administered at around 10 p.m. Dosing of individual patients were staggered. The second GHB dose was administered at 4 h after the first GHB dose (i.e. immediately after the 4 h blood sample). The exact dosing times in each patient were recorded on appropriate CRF pages. Blood samples (5 mL each) were collected through the indwelling catheter into heparinized tubes at 0.2, 0.4, 0.6, 0.8, 1, 1.5, 2, 3, 4, 4.2, 4.4, 4.6, […], 5, 5.5, […], 7, 8, 10, and 12 h after the first GHB dose. Blood samples were processed according to the procedures described herein. Patients were monitored for adverse experiences throughout the study according to the specific procedures.\nDose Administration: The investigator or designee prepared the oral solution for dosing within 30 min prior to the first oral administration to individual patients. The contents of one twin-pouch was emptied into a dosing cup to which two ounces of water were added. After replacing the lid of the dosing cup, it was gently shaken to dissolve the GHB and excipient in water. The GHB solution was ingested in its entirety. Likewise, the second GHB dosing solution was prepared in the same manner and was ingesting in its entirety at 4 h after the first GHB dose.\nPlasma samples were analyzed for GHB by the Department of Bioanalytical Chemistry (Covance (previously known as Hazelton Corning), Madison, Wis.) A gas chromatographic method with mass selective detection (GC-MSD) was used in the analysis.\nPharmacokinetic Analysis: Pharmacokinetic parameters were determined for individual sets of plasma GHB concentration vs. time data using the non-compartmental routine in WinNonlin Version 1.1. The peak GHB concentrations (Cmax) and the times of their respectively occurrences (tmax) were observed values. Terminal half-life (T1/2) was obtained by log-linear regression analysis of the terminal phase of concentration vs. time curves. The area under the curve (AUCinf) and the area under the first moment curve (AUMCinf) were calculated by the linear trapezoidal rule up to the last determined concentration and included extrapolated areas to time infinity. Apparent oral clearance (CL/F) was calculated as Dose/AUCinf. […]"}, "[2]": {"assay": "Safety assessment in the pharmacokinetic study (adverse experiences, physical examination)", "assay_type": "in vivo, human", "procedure": "Follow-up occurred within 48 h after the last blood sample had been collected. An abbreviated physical examination which included vital signs measurement was performed. Adverse experiences and concomitant medication use, if any, were assessed. Any ongoing adverse experiences and clinically important findings in a patient were followed to the investigator's and/or sponsor's satisfaction before the patient was discharged from the study.\nAn adverse experience are any undesirable event experienced by a patient or volunteer whether or not considered drug-related by the investigator. An undesirable event can be, but is not limited to, subjective symptoms experienced by a patient or, objective findings such as significant clinical laboratory abnormalities. Adverse experience is considered synonymous with the term “adverse event”.\nThe investigators report in detail all adverse experiences and symptoms that occurred during or following the course of trial drug administration for up to 2 days. Included in the description was the nature of the sign or symptom; the date of onset; date or resolution (duration); the severity; the relationship to trial treatment or other therapy; the action taken, if any; and the outcome.\nSafety Analyses: Results of physical examinations, vital signs, clinical laboratory data were summarized in tabular form and presented by patient number. […]"}, "[3]": {"settings": "alcohol dependent patients, cited from earlier work"}, "[4]": {"assay": "Solubility of sodium oxybate (GHB) in aqueous solution versus pH", "settings": "for State of 1000 mg/cc solution: pH unadjusted"}}, "note": "Entries after “also recorded” stand apart in the source; their conditions may differ. Like-named read-outs stand apart in the source and are kept apart here.", "data": [{"compound": "O=C(O)CCCO", "note": "[GHB, gamma-hydroxybutyrate]", "values": [{"measurement": "highest plasma GHB concentration observed in the study", "setting": "[1]; Subject 101 after the second 3 g GHB dose", "value": 125.0, "unit": "µg/mL"}, {"measurement": "mean observed time to maximum concentration", "setting": "[1]; after the first GHB dose", "value": "40 ± 6", "unit": "min"}, {"measurement": "mean observed time to maximum concentration", "setting": "[1]; after the second GHB dose", "value": "36 ± 7", "unit": "min"}, {"measurement": "time by which plasma GHB concentrations were no longer detectable", "setting": "[1]; after the second GHB dose (10 h after the first GHB dose)", "value": "≤ 6", "unit": "h"}, {"measurement": "Tmax", "setting": "[1]; human, plasma, oral, 3 g, after dosing (discussion)", "value": "~40", "unit": "min"}, {"measurement": "concentration at 4 h", "setting": "[1]; human, plasma, oral, 3 g, at h 4 after the first GHB dose, in three of six patients, read-out: residual GHB levels", "value": "~15", "unit": "µg/mL"}, {"measurement": "half-life", "setting": "[1]; human, plasma, oral, narcoleptic patients, read-out: elimination half-life of GHB", "value": "< 60", "unit": "min"}, {"measurement": "half-life", "setting": "[1]; human, plasma, oral, terminal phase of the second GHB dose, read-out: mean GHB T1/2 (elimination half-life)", "value": "53 ± 19", "unit": "min"}, {"measurement": "Cmax", "setting": "[1]; human, plasma, 3 g, first 3 g oral GHB dose, 6 narcoleptic patients", "value": "62.8 ± 27.4", "unit": "µg/mL"}, {"measurement": "Cmax", "setting": "[1]; human, plasma, 3 g, second 3 g oral GHB dose (4 h after the first)", "value": "91.2 ± 25.6", "unit": "µg/mL"}, {"measurement": "AUC(0-inf)", "setting": "[1]; human, plasma, two 3 g oral doses 4 h apart, read-out: mean AUCinf (converted)", "value": 296, "unit": "µg·h/mL"}, {"measurement": "CL/F", "setting": "[1]; human, plasma, two 3 g oral doses 4 h apart, read-out: mean CL/F (apparent oral clearance)", "value": "4.2 ± 1", "unit": "mL/min/kg"}, {"measurement": "MRT inf", "setting": "[1]; human, plasma, two 3 g oral doses 4 h apart, read-out: mean MRTinf (converted)", "value": 249, "unit": "min"}, {"measurement": "Vd/F", "setting": "[1]; human, plasma, two 3 g oral doses 4 h apart, read-out: mean Vz/F", "value": "0.307 ± 0.096", "unit": "L/kg"}, {"measurement": "mean GHB T1/2 (elimination half-life)", "setting": "[1]; terminal phase of the second GHB dose", "value": "~35", "unit": "min"}, {"measurement": "adverse experiences / tolerability", "setting": "[2]; narcoleptic patients, two 3 g oral doses", "value": "No adverse experiences were reported; also recorded: well tolerated"}, {"measurement": "follow-up physical examination results", "setting": "[2]; screen versus follow-up, per individual patient", "value": "did not identify any changes attributable to GHB"}, {"measurement": "apparent oral clearance", "setting": "[3]; 25 mg/kg dose (Ferrara, 1992)", "value": "8.1 ± 4.8", "unit": "mL/min/kg"}, {"measurement": "apparent oral clearance", "setting": "[3]; dose of 50 mg/kg (Ferrara, 1992)", "value": "5.3 ± 2.2", "unit": "mL/min/kg"}, {"measurement": "solubility", "setting": "[4]; aqueous medium, 25 °C, thermodynamic from solid", "value": "≤ 750", "unit": "mg/mL"}, {"measurement": "solubility", "setting": "[4]; aqueous medium, 100 °C, thermodynamic from solid", "value": "≥ 1000", "unit": "mg/mL"}]}, {"compound": "O=C(O)CCCO", "note": "[Sodium Oxybate, sodium oxybate]", "values": [{"measurement": "solubility", "setting": "[4]; 500 mg/cc with Malic Acid at pH 5.0", "value": "not soluble"}, {"measurement": "solubility", "setting": "[4]; aqueous medium, 25 °C, pH 4, aqueous buffer, thermodynamic from solid", "value": 450, "unit": "mg/mL"}, {"measurement": "solubility", "setting": "[4]; aqueous medium, 25 °C, pH 5, aqueous buffer, thermodynamic from solid", "value": 500, "unit": "mg/mL"}, {"measurement": "solubility", "setting": "[4]; aqueous medium, 25 °C, pH 6, aqueous buffer, thermodynamic from solid", "value": 600, "unit": "mg/mL"}, {"measurement": "solubility", "setting": "[4]; aqueous medium, 25 °C, pH 6.8, aqueous buffer, thermodynamic from solid", "value": 750, "unit": "mg/mL"}, {"measurement": "solubility", "setting": "[4]; aqueous medium, 25 °C, pH 10.3, thermodynamic from solid", "value": "≥ 750", "unit": "mg/mL"}, {"measurement": "solubility", "setting": "[4]; aqueous medium, 65 °C, thermodynamic from solid", "value": 1000, "unit": "mg/mL"}, {"measurement": "Maxium Solubility", "setting": "[4]; pH 4 (HCl), 25°", "value": 450, "unit": "mg/cc"}, {"measurement": "Maxium Solubility", "setting": "[4]; pH 5 (HCl), 25°", "value": 500, "unit": "mg/cc"}, {"measurement": "Maxium Solubility", "setting": "[4]; pH 6 (HCl), 25°", "value": 600, "unit": "mg/cc"}, {"measurement": "Maxium Solubility", "setting": "[4]; pH 6.8 (HCl), 25°", "value": 750, "unit": "mg/cc"}, {"measurement": "Maxium Solubility", "setting": "[4]; pH 10.3, 25°", "value": 750, "unit": "mg/cc +"}, {"measurement": "Maxium Solubility", "setting": "[4]; pH (unadjusted), 65° Soluble, 25° Gel", "value": 1000, "unit": "mg/cc"}, {"measurement": "State of 1000 mg/cc solution", "setting": "[4]; 25°", "value": "Gel"}, {"measurement": "State of 1000 mg/cc solution", "setting": "[4]; 65°", "value": "Soluble,"}]}]}
